Data taken from US20250228835A1, “PYRIDINYLOXYPYRIDINES AND RELATED COMPOUNDS AND THEIR USE IN TREATING MEDICAL CONDITIONS” (Rectify Pharmaceuticals, Inc., priority 2024, published 2025).

Tests used:
[1] = target: T1, ABCB4 WT (Homo sapiens, UniProt P21439); assay: ABCB4 WT assay: HiBit protein expression; type: cell-based; details: HEK-293 cells stably expressing HiBit-tagged ABCB4 WT; 24 h treatment; top concentration 30 μM; read-out: ABCB4 WT EC50, Emax
T1 construct: expressed in transfected cells
In short: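 HEK-293 cells stably expressing HiBit-tagged human ABCB4 WT, treated 24 h at 37 °C with 11-dose 3-fold dilutions, top final 30 μM in 0.3% DMSO. HiBit lytic reagent luminescence read after 1 h at 25 °C; Emax and EC50 derived.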

[2] = target: T2, ABCD2 WT (Homo sapiens, UniProt Q9UBJ2); assay: D2 correction dose-response assay: ABCD2 WT HiBit protein expression; type: cell-based; details: HEK-293/ABCD2 WT cells, 24 hours treatment, HiBit luminescence; class combines EC50 and Mean MaxAct (fold); read-out: ABCD2 WT EC50, Emax
T2 construct: expressed in transfected cells
T2 sequence (Q9UBJ2 1-740): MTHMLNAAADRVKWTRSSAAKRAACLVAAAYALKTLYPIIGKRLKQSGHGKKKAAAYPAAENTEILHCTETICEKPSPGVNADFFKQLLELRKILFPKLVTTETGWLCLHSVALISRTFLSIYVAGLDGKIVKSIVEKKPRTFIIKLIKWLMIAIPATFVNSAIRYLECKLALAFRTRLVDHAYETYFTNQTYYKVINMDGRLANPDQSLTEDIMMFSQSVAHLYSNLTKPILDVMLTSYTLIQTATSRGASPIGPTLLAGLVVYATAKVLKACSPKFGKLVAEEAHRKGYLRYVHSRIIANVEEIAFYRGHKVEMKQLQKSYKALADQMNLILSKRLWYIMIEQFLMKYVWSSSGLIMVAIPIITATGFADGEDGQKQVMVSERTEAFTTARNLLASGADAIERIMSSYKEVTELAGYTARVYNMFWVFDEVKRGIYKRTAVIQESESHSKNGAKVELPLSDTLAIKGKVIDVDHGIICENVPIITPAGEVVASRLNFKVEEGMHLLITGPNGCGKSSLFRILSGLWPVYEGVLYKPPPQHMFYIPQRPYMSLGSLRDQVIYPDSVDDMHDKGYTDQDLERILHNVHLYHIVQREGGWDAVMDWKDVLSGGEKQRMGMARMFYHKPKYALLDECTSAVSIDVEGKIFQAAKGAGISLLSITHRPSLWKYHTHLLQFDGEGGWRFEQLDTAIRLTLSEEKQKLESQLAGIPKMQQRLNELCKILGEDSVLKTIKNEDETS
In short: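 HEK-293 cells stably expressing HiBit-tagged human ABCD2 WT were treated with 11 doses (3-fold dilutions, top final 30 μM, 0.3% DMSO) for 24 h at 37 °C. Expression was measured by HiBit lytic luminescence after 1 h at 25 °C, giving EC50 and Emax.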

T1 sequence (P21439 whole entry): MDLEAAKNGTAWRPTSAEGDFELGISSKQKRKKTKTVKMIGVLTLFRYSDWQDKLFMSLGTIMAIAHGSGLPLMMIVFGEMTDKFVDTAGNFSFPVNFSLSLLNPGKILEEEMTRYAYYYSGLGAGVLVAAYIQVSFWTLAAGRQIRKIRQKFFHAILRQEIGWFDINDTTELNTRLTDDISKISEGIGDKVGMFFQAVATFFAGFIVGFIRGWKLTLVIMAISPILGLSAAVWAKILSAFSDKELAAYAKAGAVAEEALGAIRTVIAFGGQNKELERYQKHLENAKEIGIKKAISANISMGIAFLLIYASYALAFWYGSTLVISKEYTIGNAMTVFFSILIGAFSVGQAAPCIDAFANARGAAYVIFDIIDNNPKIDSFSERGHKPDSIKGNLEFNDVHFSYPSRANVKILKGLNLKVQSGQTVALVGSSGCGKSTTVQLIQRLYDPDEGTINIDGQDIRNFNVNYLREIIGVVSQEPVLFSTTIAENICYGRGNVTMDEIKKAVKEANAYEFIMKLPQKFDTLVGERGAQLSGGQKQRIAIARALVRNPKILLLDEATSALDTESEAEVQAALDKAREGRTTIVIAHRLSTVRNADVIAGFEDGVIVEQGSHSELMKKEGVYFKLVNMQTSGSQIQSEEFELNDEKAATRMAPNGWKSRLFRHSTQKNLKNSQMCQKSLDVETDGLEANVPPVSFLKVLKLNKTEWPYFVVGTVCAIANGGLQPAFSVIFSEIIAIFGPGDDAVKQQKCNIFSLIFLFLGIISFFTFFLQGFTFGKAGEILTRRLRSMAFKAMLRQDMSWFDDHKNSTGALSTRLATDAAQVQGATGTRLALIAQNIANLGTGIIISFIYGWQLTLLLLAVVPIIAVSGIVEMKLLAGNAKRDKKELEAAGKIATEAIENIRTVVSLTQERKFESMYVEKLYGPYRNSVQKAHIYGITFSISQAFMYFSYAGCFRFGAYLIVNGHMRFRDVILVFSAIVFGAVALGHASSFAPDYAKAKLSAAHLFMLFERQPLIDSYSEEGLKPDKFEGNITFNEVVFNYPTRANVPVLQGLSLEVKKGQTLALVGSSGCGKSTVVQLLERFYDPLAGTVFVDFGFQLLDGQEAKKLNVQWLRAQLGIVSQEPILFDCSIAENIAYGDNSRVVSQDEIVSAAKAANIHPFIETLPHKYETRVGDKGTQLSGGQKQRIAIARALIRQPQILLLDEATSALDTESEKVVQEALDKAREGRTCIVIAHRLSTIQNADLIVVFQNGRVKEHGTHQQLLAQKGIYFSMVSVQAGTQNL

Structure (SMILES): CNS(=O)(=O)c1cnc(-c2cncc(Cl)c2)cc1Oc1c(C)cc(C)cc1C [Compound I-84]
- EC50 [1]: ≥ 25 µM
- EC50 [2]: 10 to 25 µM

Structure (SMILES): Cc1cc(C)c(Oc2nc(-c3cncc(Cl)c3)ccc2S(=O)(=O)N(C)Cc2ccccc2)c(C)c1 [Compound I-85]
- EC50 [1]: < 25 µM
- EC50 [2]: 1 to 10 µM

Structure (SMILES): Cc1cc(C)c(Oc2nc(-c3cncc(Cl)c3)ccc2S(=O)(=O)NCc2ccccn2)c(C)c1 [Compound I-86]
- EC50 [1]: 1 to 10 µM
- EC50 [2]: 1 to 10 µM

Structure (SMILES): Cc1cc(C)c(Oc2nc(-c3cncc(Cl)c3)ccc2S(=O)(=O)NCc2cc(C(F)(F)F)ccn2)c(C)c1 [Compound I-87]
- EC50 [1]: 1 to 10 µM
- EC50 [2]: > 25 µM

Structure (SMILES): Cc1cc(C)c(Oc2nc(-c3cncc(Cl)c3)ccc2S(=O)(=O)NCc2ccccc2)c(C)c1 [Compound I-88]
- EC50 [1]: < 25 µM
- EC50 [2]: 1 to 10 µM

Structure (SMILES): CNS(=O)(=O)c1ncc(-c2cncc(Cl)c2)nc1Oc1c(C)cc(C)c(Cl)c1C [Compound I-89]
- EC50 [1]: 1 to 10 µM
- EC50 [2]: 1 to 10 µM

Structure (SMILES): Cc1cc(C)c(Oc2nc(-c3cncc(Cl)c3)cnc2S(N)(=O)=O)c(C)c1Cl [Compound I-90]
- EC50 [1]: 1 to 10 µM
- EC50 [2]: 1 to 10 µM

Structure (SMILES): CNS(=O)(=O)c1ccc(N2CCN(C)C(=O)C2)nc1Oc1c(C)cc(C)cc1C [Compound I-92]
- EC50 [1]: ≥ 25 µM
- EC50 [2]: > 25 µM

Structure (SMILES): Cc1cc(C)c(Oc2nc(-c3cncc(Cl)c3)ncc2S(N)(=O)=O)c(C)c1Cl [Compound I-93]
- EC50 [1]: ≥ 25 µM
- EC50 [2]: 1 to 10 µM

Structure (SMILES): Cc1cc(C)c(Oc2nc(-c3cncc(Cl)c3)ccc2S(=O)(=O)Nc2cnn(C)c2)c(C)c1 [Compound I-94]
- EC50 [1]: 1 to 10 µM
- EC50 [2]: 1 to 10 µM
